Reference: paper PMC8778818, “Synthesis, Structural Characterization and Anticancer Activity of New 5-Trifluoromethyl-2-thioxo-thiazolo[4,5-d]pyrimidine Derivatives” (Pharmaceuticals, 2022)

Key:
SF-295 = assay: NCI-60 screen, CNS Cancer SF-295; assay type: cell-based, human; conditions: SF-295, 10^−5 M one dose
NCI-H226 = assay: NCI-60 screen, Non-Small Cell Lung Cancer NCI-H226; assay type: cell-based, human; conditions: NCI-H226, 10^−5 M one dose
HS 578T = assay: NCI-60 screen, Breast Cancer HS 578T; assay type: cell-based, human; conditions: 10^−5 M one dose
SK-MEL-2 = assay: NCI-60 screen, Melanoma SK-MEL-2; assay type: cell-based, human; conditions: SK-MEL-2, 10^−5 M one dose
ACHN = assay: NCI-60 screen, Renal Cancer ACHN; assay type: cell-based, human; conditions: 10^−5 M one dose
OVCAR-3 = assay: NCI-60 screen, Ovarian Cancer OVCAR-3; assay type: cell-based, human; conditions: OVCAR-3, 10^−5 M one dose
NCI-H522 = assay: NCI-60 screen, Non-Small Cell Lung Cancer NCI-H522; assay type: cell-based, human; conditions: NCI-H522, 10^−5 M one dose
SK-OV-3 = assay: NCI-60 screen, Ovarian Cancer SK-OV-3; assay type: cell-based, human; conditions: SK-OV-3, 10^−5 M one dose
HT29 = assay: NCI-60 screen, Colon Cancer HT29; assay type: cell-based, human; conditions: HT29, 10^−5 M one dose
SK-MEL-5 = assay: NCI-60 screen, Melanoma SK-MEL-5; assay type: cell-based, human; conditions: SK-MEL-5, 10^−5 M one dose
SNB-75 = assay: NCI-60 screen, CNS Cancer SNB-75; assay type: cell-based, human; conditions: SNB-75, 10^−5 M one dose
OVCAR-8 = assay: NCI-60 screen, Ovarian Cancer OVCAR-8; assay type: cell-based, human; conditions: OVCAR-8, 10^−5 M one dose
C32 = assay: MTT cell viability assay, C32; assay type: cell-based, human; conditions: Homo sapiens; C32, MTT, 72 h, mean ± SD
Method: (§1) Twelve compounds (2a-e, 3a-d and 4a-c) at a concentration range of 50–5000 μM were tested for their antiproliferative potential against four human cancer cell lines (A375—melanotic melanoma, C32—amelanotic melanoma, DU145—prostate cancer androgen-independent, MCF-7/WT—breast adenocarcinoma) and two normal cell lines: Chinese Hamster Ovary (CHO-K1) and immortalized human keratinocytes from histologically normal skin (HaCaT).
(§2) To determine the antiproliferative activity of newly synthesized compounds, the following cell lines were used: human melanotic melanoma cell line (A375), human amelanotic melanoma cell line (C32), human breast adenocarcinoma cell line (MCF-7/WT), human prostate cancer androgen-independent (DU145) and two normal cell lines: hamster ovarian (CHO-K1) and immortalized human keratinocytes from histologically normal skin (HaCaT). The cells were obtained from the cell line bank of the Department of Molecular and Cellular Biology, Wroclaw Medical University. A375, C32, MCF-7/WT, DU145 and HaCaT cells were grown in a monolayer cultured in Dulbecco’s Modified Eagle’s Medium (DMEM, Sigma-Aldrich, Poznań, Poland), supplemented with 10% of fetal bovine serum (FBS, Gibco, Paisley, UK) and 1% of antibiotics (penicillin/streptomycin, Sigma-Aldrich) and CHO-K1 were grown in HAM’s F-12 medium (Sigma-Aldrich), supplemented with 10% fetal bovine serum (FBS, Gibco) and 1% of antibiotics (penicillin/streptomycin, Sigma-Aldrich). Cell lines were cultured in the polystyrene flasks 25 or 75 cm^2 (Thermo Fisher Scientific, Waltham, MA, USA), which were stored in 37 °C and 5% CO2 in a humidified 95% atmosphere (SteriCult, Thermo Scientific, Alab). The cell medium was exchanged twice a week. The exponentially growing cells were used throughout the experiments. The cells were rinsed with phosphate-buffered saline (PBS, Sigma-Aldrich) and trypsinized by Trypsin-EDTA 0.25% solution (Sigma-Aldrich).
(§3) The influence of the compounds was performed in a monolayer culture on cancer and normal cells. Compounds were initially dissolved in DMSO; further dilutions of the compound were performed in Dulbecco’s Modified Eagle’s Medium supplemented with 10% FBS. Compounds were tested in a 50–5000 µM concentration range. In the in vitro experiments, the concentrations of DMSO in the final solution of the compounds were used 0.05%; 0.1%; 0.5%; 1%, respectively.
(§4) Cell viability was determined using the MTT colorimetric assay. All cell lines were seeded into 96-well plates to a density of 3 × 10^4 cells/well. After 24 h, the culture supernatants were removed and appropriate dilutions of compounds in the culture medium (200 µL/well) were added to the cells’ monolayer cultures and incubated for an additional 72 h. After 72 h of exposition to the compounds and the removal of the culture medium, cell viability was determined by reducing the yellow dye 3-(4,5-dimethyl-2-thiazol)-2,5-diphenyl-2H-tetrazolium bromide (MTT assay, Sigma Saint Louis, MO, USA; In Vitro Toxicology Assay) to a blue formazan product. The absorbance of the resulting solutions in three duplicate experiments was measured at the wavelength of 560 nm in a microplate reader (EnSpire, Perkin Elmer, Kraków, Poland). MTT assay is a colorimetric method that estimates the rate of metabolism in viable cells. Absorbance is directly proportional to the number of viable cells. All the experiments were performed three times and the mean absorbance values were calculated. The methodology for the evaluation of the growth of human cancer and normal cells was described previously. The cell viability in each group was expressed as a percentage of control (untreated) cells.

SN12C = assay: NCI-60 screen, Renal Cancer SN12C; assay type: cell-based; conditions: 10^−5 M one dose
T-47D = assay: NCI-60 screen, Breast Cancer T-47D; assay type: cell-based; conditions: T-47D, 10^−5 M one dose
SK-MEL-28 = assay: NCI-60 screen, Melanoma SK-MEL-28; assay type: cell-based; conditions: SK-MEL-28, 10^−5 M one dose
RPMI-8226 = assay: NCI-60 screen, Leukemia RPMI-8226; assay type: cell-based, human; conditions: RPMI-8226, 10^−5 M one dose
786-0 = assay: NCI-60 screen, Renal Cancer 786-0; assay type: cell-based; conditions: 786-0, 10^−5 M one dose
M14 = conditions: M14, 10^−5 M one dose
A498 = assay: NCI-60 screen, Renal Cancer A498; assay type: cell-based, human; conditions: A498, 10^−5 M one dose
A375 = assay: MTT cell viability assay, A375; assay type: cell-based, human; conditions: Homo sapiens, A-375, 72 h, A375, MTT, mean ± SD
Method: as §1, §2, §3, §4

Fc1ccc(CNc2nc(C(F)(F)F)nc3c2sc(=S)n3-c2ccccc2)cc1 [Compound 4c]
Growth of Cells (%) (SF-295): 91.10% | Growth of Cells (%) (NCI-H226): 112.41% | Growth of Cells (%) (HS 578T): 125.43% | Growth of Cells (%) (SK-MEL-2): 95.77% | Growth of Cells (%) (ACHN): 99.14% | Growth of Cells (%) (OVCAR-3): 111.62% | Growth of Cells (%) (NCI-H522): 90.73% | Growth of Cells (%) (SK-OV-3): 99.96% | Growth of Cells (%) (HT29): 103.27% | Growth of Cells (%) (SK-MEL-5): 105.71% | Growth of Cells (%) (SNB-75): 103.11% | Growth of Cells (%) (OVCAR-8): 98.68% | IC50 (C32): 485 ± 21.2 µM | Growth of Cells (%) (SN12C): 101.41% | Growth of Cells (%) (T-47D): 85.37% | Growth of Cells (%) (SK-MEL-28): 110.02% | Growth of Cells (%) (RPMI-8226): 104.96% | Growth of Cells (%) (786-0): 99.38% | Growth of Cells (%) (M14): 112.06% | Growth of Cells (%) (A498): 121.43% | IC50 (A375): 507 ± 22.1 µM
